Results: ChEMBL document CHEMBL1201862, “PubChem BioAssay data set” (2004)
Where “and” joins values, the source holds several entries; their conditions need not be identical. Identical values can stand only once.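 Five compound concentrations were applied to cells in 96-well plates for 48 hours; endpoints were derived by simple linear interpolation of the resulting dose-response curve. GI50 marks 50% less growth.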 Calls of active or inactive are those of the source. Rule as the data show it: active = GI50 up to about 1.1 µM and inactive = higher.

Columns and labels:
Assay in all cases: NCI-60 cell line screen, 48 h
OVCAR-4 = test system: OVCAR-4
SNB-19 = test system: SNB-19
SW-620 = test system: SW-620
COLO 205 = test system: COLO 205
TK-10 = test system: TK-10
ACHN = test system: ACHN
U-251 = test system: U-251
UACC-257 = test system: UACC-257
Malme-3M = test system: Malme-3M
HCT-116 = test system: HCT-116
NCI/ADR-RES = test system: NCI/ADR-RES
NCI-H460 = test system: NCI-H460
NCI-H23 = test system: NCI-H23
SF-539 = test system: SF-539
K562 = test system: K562
LOX IMVI = test system: LOX IMVI
SK-MEL-5 = test system: SK-MEL-5
UO-31 = test system: UO-31
HCC 2998 = test system: HCC 2998
SR = test system: SR

Measured: GI50

COC(=O)[C@@H]1O[C@]12[C@@H](CO[Si](C)(C)C(C)(C)C)O[C@@H](n1cc(C)c(=O)[nH]c1=O)[C@@H]2O[Si](C)(C)C(C)(C)C
inactive: OVCAR-4 32.5 µM | SNB-19 10.3 µM | SW-620 11.5 µM | COLO 205 28.4 µM | TK-10 45 µM | ACHN 16.6 µM | U-251 12.3 µM | UACC-257 22.4 µM | Malme-3M 21.6 µM | HCT-116 15.2 µM | NCI/ADR-RES 13.6 µM | NCI-H460 11.6 µM | NCI-H23 15.8 µM | SF-539 21.3 µM | K562 7.96 µM | LOX IMVI 3.38 µM | SK-MEL-5 19.7 µM

C=C1c2c(cc3c(c2O)c(=O)c2ccccc2n3C)OC1(C)C
inactive: SNB-19 34.4 µM | SW-620 > 100 µM | COLO 205 > 100 µM | TK-10 77.6 µM | ACHN 46.9 µM | U-251 50.1 µM | Malme-3M > 100 µM | UO-31 > 100 µM | NCI-H460 59 µM | NCI-H23 7.89 µM | SF-539 35.2 µM | K562 > 10 µM | LOX IMVI > 100 µM | SK-MEL-5 > 100 µM

CCOC(=O)CCSS(=O)(=O)C(F)(F)F
inactive: OVCAR-4 > 100 µM | SNB-19 > 100 µM | SW-620 > 100 µM | COLO 205 > 100 µM | TK-10 > 100 µM | ACHN > 100 µM | U-251 > 100 µM | UACC-257 > 100 µM | HCT-116 > 100 µM | UO-31 > 100 µM | NCI/ADR-RES > 100 µM | NCI-H460 > 100 µM | NCI-H23 > 100 µM | HCC 2998 > 100 µM | LOX IMVI > 100 µM | SK-MEL-5 > 100 µM

O=C1CCCC(=O)N1CCc1c[nH]c2ccccc12
inactive: OVCAR-4 > 100 µM | SNB-19 > 100 µM | SW-620 > 100 µM | SR > 100 µM | TK-10 > 100 µM | ACHN > 100 µM | U-251 > 100 µM | UACC-257 > 100 µM | Malme-3M > 100 µM | HCT-116 > 100 µM | UO-31 > 100 µM | NCI-H460 > 100 µM | NCI-H23 > 100 µM | HCC 2998 > 100 µM | SF-539 > 100 µM | K562 > 100 µM | SK-MEL-5 > 100 µM

O=C(NC(Cc1ccc(I)cc1)C(=O)O)c1ccc(I)cc1 (stereo not given)
inactive: OVCAR-4 51.4 µM | SNB-19 54.7 µM | COLO 205 > 100 µM | U-251 62.1 µM | UACC-257 > 100 µM | Malme-3M 67.1 µM | HCT-116 54.1 µM | UO-31 14.5 µM | NCI/ADR-RES > 100 µM | NCI-H460 57.9 µM | NCI-H23 > 80.2 µM | HCC 2998 > 41.7 µM | SF-539 > 74 µM | K562 59.6 µM | LOX IMVI > 100 µM | SK-MEL-5 > 75.3 µM

COc1ccccc1C1C(Cl)C(=O)N1n1cnc2ccccc2c1=O (stereo not given)
inactive: OVCAR-4 > 100 µM | SNB-19 75 µM | SW-620 > 100 µM | COLO 205 > 100 µM | SR 85.9 µM | TK-10 > 100 µM | ACHN > 100 µM | U-251 48.3 µM | UACC-257 > 100 µM | Malme-3M > 100 µM | HCT-116 > 100 µM | UO-31 45.6 µM | NCI-H460 > 100 µM | NCI-H23 > 100 µM | HCC 2998 > 100 µM | K562 > 100 µM | LOX IMVI > 100 µM | SK-MEL-5 > 100 µM

COc1cc(C2C(C(=O)O)=C(COC(C)=O)Oc3cc4c(cc32)OCO4)cc(OC)c1OC (stereo not given)
inactive: OVCAR-4 > 100 µM | SNB-19 > 100 µM | SW-620 > 100 µM | COLO 205 > 100 µM | TK-10 > 100 µM | ACHN > 100 µM | U-251 > 100 µM | UACC-257 > 100 µM | Malme-3M > 100 µM | HCT-116 > 100 µM | UO-31 > 100 µM | NCI-H460 > 100 µM | NCI-H23 > 100 µM | K562 > 100 µM | LOX IMVI > 100 µM | SK-MEL-5 > 100 µM

c1c2c(cc(-n3nnc4c3CCCCCC4)c1-n1nnc3c1CCCCCC3)CCCCCC2
inactive: SNB-19 12.8 µM | SW-620 11.2 µM | SR 3.54 µM | TK-10 12.6 µM | ACHN 5.71 µM | U-251 10.1 µM | UACC-257 11.7 µM | HCT-116 5.7 µM | UO-31 5.4 µM | NCI-H460 6.3 µM | NCI-H23 > 10 µM | HCC 2998 12.8 µM | K562 4.36 µM | LOX IMVI 11.8 µM | SK-MEL-5 11.7 µM

COc1ccc(/C=C2\CCNC2=O)cc1
inactive: OVCAR-4 > 100 µM | SNB-19 > 100 µM | SW-620 > 100 µM | COLO 205 > 100 µM | U-251 > 100 µM | UACC-257 > 100 µM | Malme-3M > 100 µM | HCT-116 > 100 µM | UO-31 75.2 µM | NCI/ADR-RES > 100 µM | NCI-H460 > 100 µM | NCI-H23 > 100 µM | HCC 2998 > 48.5 µM | SF-539 > 76.6 µM | K562 > 100 µM | LOX IMVI > 100 µM | SK-MEL-5 > 100 µM

CC(C)(C)N1C(C(=O)c2ccccc2)C1c1ccccc1 (stereo not given)
inactive: OVCAR-4 > 100 µM | SNB-19 > 100 µM | SW-620 > 100 µM | COLO 205 > 100 µM | TK-10 > 100 µM | U-251 > 100 µM | UACC-257 > 100 µM | NCI-H460 > 100 µM | NCI-H23 > 100 µM | HCC 2998 > 100 µM | SF-539 > 100 µM | K562 > 100 µM | LOX IMVI > 100 µM | SK-MEL-5 > 100 µM

CC(NC(=O)C(C)NC(=O)C(N)CCP(C)(=O)O)C(=O)O (stereo not given)
inactive: OVCAR-4 > 100 µM | SNB-19 > 100 µM | SW-620 > 100 µM | COLO 205 > 100 µM | U-251 > 100 µM | UACC-257 > 100 µM | Malme-3M > 100 µM | HCT-116 > 100 µM | UO-31 > 100 µM | NCI/ADR-RES > 100 µM | NCI-H460 > 100 µM | NCI-H23 > 100 µM | HCC 2998 > 100 µM | SF-539 > 100 µM | K562 > 100 µM | LOX IMVI > 100 µM | SK-MEL-5 > 100 µM

O=C(O)C1(C(O)c2ccccc2)SCCCS1 (stereo not given)
inactive: SNB-19 > 10 µM | SW-620 > 10 µM | SR > 10 µM | TK-10 > 10 µM | ACHN > 10 µM | U-251 > 10 µM | UACC-257 > 10 µM | Malme-3M > 10 µM | HCT-116 > 10 µM | UO-31 > 10 µM | NCI-H460 > 10 µM | NCI-H23 > 10 µM | SF-539 > 10 µM | K562 > 10 µM | LOX IMVI > 10 µM | SK-MEL-5 > 10 µM

Cc1nc2c(sc(=S)n2-c2ccccc2)c(=O)[nH]1
inactive: SNB-19 > 100 µM | SW-620 > 100 µM | COLO 205 > 100 µM | SR > 100 µM | TK-10 > 100 µM | ACHN > 100 µM | U-251 > 100 µM | UACC-257 > 100 µM | Malme-3M > 100 µM | HCT-116 > 100 µM | UO-31 > 100 µM | NCI-H460 > 100 µM | NCI-H23 > 100 µM | HCC 2998 > 100 µM | SF-539 > 100 µM | K562 > 100 µM | SK-MEL-5 > 100 µM

CCCCCCCCC(O)c1ccc(/C=C\C(O)CCCC(=O)O)s1 (stereo not given)
inactive: OVCAR-4 > 100 µM | SNB-19 > 100 µM | SW-620 > 100 µM | COLO 205 > 100 µM | SR > 100 µM | TK-10 > 100 µM | ACHN > 100 µM | U-251 > 100 µM | UACC-257 > 100 µM | Malme-3M > 100 µM | HCT-116 > 100 µM | UO-31 > 100 µM | NCI-H460 > 100 µM | NCI-H23 > 100 µM | HCC 2998 > 100 µM | SF-539 > 100 µM | K562 > 100 µM | LOX IMVI > 100 µM | SK-MEL-5 > 100 µM

O=C(O)c1cnc2c(ccc3ncc(C(=O)O)c(O)c32)c1O
inactive: OVCAR-4 > 100 µM | SNB-19 > 100 µM | SW-620 > 100 µM | COLO 205 > 100 µM | SR > 100 µM | TK-10 > 100 µM | ACHN > 100 µM | U-251 > 100 µM | UACC-257 > 100 µM | Malme-3M > 100 µM | HCT-116 > 100 µM | UO-31 > 100 µM | NCI/ADR-RES > 100 µM | NCI-H460 > 100 µM | NCI-H23 > 100 µM | SF-539 > 100 µM | K562 > 100 µM | LOX IMVI > 100 µM | SK-MEL-5 > 100 µM

COc1cc(NC(C)CCCN)c2ncccc2c1 (stereo not given) [PRIMAQUINE PHOSPHATE]
inactive: OVCAR-4 > 88.3 µM | SW-620 52.2 µM and 73.8 µM | COLO 205 17.8 µM and 32.5 µM | TK-10 49.8 µM and > 94.4 µM | ACHN 51.6 µM and 82 µM | NCI/ADR-RES > 100 µM | NCI-H23 > 100 µM and > 90.6 µM | HCC 2998 28.2 µM and 16.9 µM | SF-539 > 100 µM | K562 28.9 µM and 20.9 µM | LOX IMVI 43.9 µM and 51.4 µM | SK-MEL-5 29.8 µM and 17.8 µM
